Literature values, collected in US20150104527A1, “AQUEOUS IONIC SOLUTION CONTAINING SEAWATER AND AT LEAST ONE COMPOUND THAT IS ORIGINALLY IMMISCIBLE WITH SEA WATER” (LABORATOIRE DE LA MER, priority 2011, published 2015).

Legend:
nasal mucus membrane = settings: observed in patients even for short use; Graf P et al, 1999
human neutrophiles = settings: even at low concentration; Boston et al, 2003

In the case of benzalkonium chloride, the “effect on the nasal mucus membrane” value (nasal mucus membrane) is listed as “deleterious effects” and the “toxicity for human neutrophiles” value (human neutrophiles) is listed as “toxic”.
